# What was measured:
# METTL10 = tested on: T1, METTL10; assay: In vitro (cell-free) methylation of GST-PIAS3 by His-METTL10, immunoblotting; assay type: biochemical; conditions: 20 µM or higher; GST-PIAS3 with His-METTL10
# T1 construct: purchased ICE Bioscience Inc
# Procedure: For the in vitro methylation assay, His‐METTL10 (1 µg) was incubated with recombinant human Histone H4 protein (20 ng; Abcam, ab198115) or GST‐PIAS3 (100 ng) of in methylation reaction buffer (50 mM Tris‐HCl (pH 8.0), 20 mM KCl, 5 mM DTT, 4 mM EDTA) containing 20 µM S‐(5′‐adenosyl)‐L‐methionine chloride dihydrochloride (SAM) at 37 °C for 1 h. The reaction was terminated by boiling the samples in SDS‐PAGE loading buffer, and the products were analyzed by immunoblotting.
# [1] = tested on: PIAS3-K442 methylation in MKN45 and AGS cells; assay: Immunoblotting of PIAS3-K442 methylation in GC cell lines; assay type: cell-based; conditions: 20 µM or higher, 24-hour treatment
# Procedure: (§1) Protein extraction from tissues or cells was performed by lysis buffer (20 mM Tris‐HCl (pH 7.5), 150 mM NaCl, 1 mM EDTA, 1 mM EGTA, 2.5 mM sodium pyrophosphate, 1 mM β‐glycerolphosphate, 1% Triton X‐100) supplemented with 1% phenylmethylsulfonyl fluoride (PMSF; Solarbio, P0100) and protease inhibitor cocktail (Apexbio, K1007) and lysed at 4 °C for 60 min, followed by centrifugation at 12000 g for 15 min at 4 °C. For Immunoblotting, the protein concentration was determined using the Pierce BCA Protein Assay Kit (Thermo Fisher Scientific, A55864). The protein samples were denatured by boiling in SDS‐PAGE loading buffer. For immunoprecipitation, antibodies were incubated with Dynabeads Protein G (Thermo, 10004D) at 4 °C for 4 h. The supernatant was then incubated with magnetic beads conjugated with antibodies or anti‐FLAG‐M2 magnetic beads (Sigma–Aldrich, M8823) at 4 °C overnight. Following incubation, the magnetic beads were washed three times with lysis buffer and then boiled in SDS‐PAGE loading buffer. The proteins were separated by sodium dodecyl sulfate polyacrylamide gel electrophoresis (SDS‐PAGE) with One‐Step PAGE Gel Fast Preparation Kit (Vazyme), and then transferred to the PVDF Membrane (Bio‐Rad). After blocking with a protein‐free rapid blocking buffer (Epizyme, PS108P) for 15 min, the membranes were incubated with primary antibodies at 4 °C overnight. […]
# [2] = tested on: MITF ubiquitination in MKN45 and AGS cells; assay: Endogenous MITF ubiquitination and degradation in GC cells (IP and immunoblotting); assay type: cell-based; conditions: 20 µM, MG132 5 µM pretreatment
# Procedure: as §1, with “buffer.” for “buffer. The proteins were separated by sodium dodecyl sulfate polyacrylamide gel electrophoresis (SDS‐PAGE) with One‐Step PAGE Gel Fast Preparation Kit (Vazyme), and then transferred to the PVDF Membrane (Bio‐Rad). After blocking with a protein‐free rapid blocking buffer (Epizyme, PS108P) for 15 min, the membranes were incubated with primary antibodies at 4 °C overnight.”
# Plasmids were transfected into HEK293T cells for 24 h or into gastric cells for 36 h. […] After lysing the cells with lysis buffer, the samples were subjected to immunoprecipitation and analyzed by immunoblotting.
# [3] = tested on: gastric tumors of K19-C2mE mice; assay: K19-C2mE spontaneous gastric cancer mouse model; assay type: in vivo; conditions: 40 mg/kg/day i.p., 4 weeks
# Procedure: (§2) For the subcutaneous tumor model, 5 × 10⁶ MKN45 cells suspended in 100 µL of sterile PBS were injected subcutaneously into the flanks of BALB/c nude mice. When tumor volumes reached approximately 50 mm^3, mice were randomized into three groups (Vehicle control, LZQ‐02‐023‐01 at 20 mg/kg or 40 mg/kg, n = 10 per group). All treatments were administered via intraperitoneal injection once daily for 14 consecutive days. Tumor volumes were measured every 2 days using calipers and calculated using the formula: volume = [length × (width[2])]/2. Mice were sacrificed on day 24 for endpoint analyses. For genetically engineered mouse models (GEMMs), 25‐week‐old K19‐C2mE mice were randomized into Vehicle control (n = 8) and LZQ‐02‐023‐01 treatment (40 mg/kg, n = 8) groups. Both groups received daily intraperitoneal injections for 28 consecutive days. Similarly, 8‐week‐old Cldn18‐AT mice were induced with tamoxifen (100 mg/kg, T5648, Sigma) and, 2 weeks post‐induction, randomized into Vehicle (n = 6) and LZQ‐02‐023‐01 (40 mg/kg, n = 6) treatment groups. Treatments were administered daily via intraperitoneal injection for 28 days.
# (§3) Paraffin sections were initially placed in an oven at 65 °C for 30 min to melt the paraffin. The slides were then immersed in two consecutive xylene baths for 10 min each to dewax the tissue, followed by hydration through a series of graded ethanol solutions. […]
# [4] = tested on: gastric tumors of Cldn18-AT mice; assay: Cldn18-AT advanced gastric cancer mouse model; assay type: in vivo; conditions: 40 mg/kg/day i.p., 28 days
# Procedure: as §2, §3
compound,measurement,setting,value
"Cc1ccc(Nc2ncc3c(n2)N(C)C(=O)N(c2cccc(N)c2)C3)cn1 [LZQ-02-023-01, Three‐(3‐aminophenyl)‐1‐methyl‐7‐((6‐methylpyridin‐3‐yl)amino)‐3,4‐dihydropyrimido [4,5‐d] pyrimidin‐2 (1H)‐one]",Methylation of PIAS3 in cell-free system,METTL10,decreased
same,Methylation of PIAS3-K442 in GC cell lines,[1],decreased
same,"PIAS3-mediated ubiquitination and degradation of MITF, GC cells",[2],significantly promoted
same,"Pathologic grade of lesions and proliferation (H&E, Ki-67)",[3],lower pathologic grade lesions and proliferation
same,Tumor burden and progression,[3],significantly reduce tumor burden and progression
same,"Pathologic grade of lesions and proliferation (H&E, Ki-67)",[4],lower pathologic grade lesions and proliferation
same,Tumor burden and progression,[4],significantly reduced tumor burden and progression
